A short description of one data set: in vivo. Conditions: mouse, mice, mortality 7 days after administration. The procedure: 20-30 g b.w., were obtained from Charles River, Italy. Animals were housed with free access to food and water and maintained on forced light-dark cycle at 22°-24° C. until the day of experiments.
The acute toxicity of synthesized compounds was evaluated in female Albino Swiss mice after intraperitoneal and oral administration. Four logarithmic scaled doses of the compounds were dissolved or suspended in 0.5% Methocel and administered in a volume of 10 ml/kg to groups of 4 mice/dose. Mortality was recorded 7 days after the administration.

Data set [1] addresses α1-receptors ([3H]prazosin). The data set is described as follows: [3H]Prazosin binding (α1-receptors), rat cerebral cortices. As to conditions: rat cerebral cortex, 0.35 nM [3H]prazosin, 25° C., 30 min; read-out: [3H] prazosine IC50. As for the experimental part: Rat cerebral cortices were homogenized in 50 volumes of original wet weight of ice-cold 50 mM Tris-HCl buffer pH 7.4. The homogenates were centrifuged at 48,000 × g for 10 minutes, and the pellets were resuspended in the same volume of ice-cold buffer, centrifuged and resuspended two more times. […] The incubations were terminated by rapid filtration through Whatman GF/B, filters using a Brandel cell harvester and the filters were washed with 3×3 ml of ice-cold buffer. The radioactivity retained on the filters was determined by liquid scintillation counting. Data analysis The inhibition of specific binding of the radioligands by the tested drugs was analyzed to estimate the IC50 value by using the non-linear curve-fitting program Allfit [A. De Lean et al., Am. J. Physiol.

Where [2] appears, read: ip, intraperitoneal, read-out: DL50 i.p.

Structures are written as SMILES. Where a name gives a salt, the structure may show the parent alone. Read-outs that look alike come from different tables or passages of the source. Where only a bound is given, the exact number is not on record here.

The values below come from patent publication US5798362A, “Quinazolinyl-amino derivatives having α-antagonist activity” (Recordati S.A. Chemical and Pharmaceutical Company, priority 1994, dated 1998).

The term IC50 denotes the concentration that gives 50% inhibition.

For the compound `COc1cc2nc(N3CCC(c4ccccc4)(c4ccccc4)CC3)nc(N)c2cc1OC` [Example 32, 4-Amino-6,7-dimethoxy-2-(4,4-diphenyl-1-piperidinyl)-guinazoline hydrochloride . 0.65 H2 O], the LD50 at 168 h in “in vivo” (setting [2]) was over 500 mg/kg; in “in vivo” (oral, read-out: DL50 p.o.) it was over 2000 mg/kg. The IC50 in data set [1] worked out at 0.259 µM.

Consider `COc1cc2nc(N3CCN(C(=O)CC(c4ccccc4)c4ccccc4)CC3)nc(N)c2cc1OC` [Example 4, 4-Amino-6,7-dimethoxy-2-[4-(3,3-diphenylpropionyl)-1-piperazinyl]-guinazoline hydrochloride], for which the LD50 at 168 h in the data set “in vivo” (setting [2]) is 97 mg/kg; in the data set “in vivo” (oral, read-out: DL50 p.o.) it was over 3000 mg/kg. Also, the IC50 in data set [1] was 0.003 µM.

As to `COc1cc2nc(N3CCN(C(=O)CCNC(=O)OCc4ccccc4)CC3)nc(N)c2cc1OC` [Example 5, 4-Amino-6,7-dimethoxy-2-{4-[(3-benzyloxycarbonylamino)propionyl]-1-piperazinyl}-quinazoline hydrochloride emihydrate], the LD50 at 168 h in “in vivo” (setting [2]) was 300 mg/kg; in the data set “in vivo” (oral, read-out: DL50 p.o.) it was over 3000 mg/kg. For the same compound, the IC50 in data set [1] was determined as 0.283 µM.

On to `COc1cc2nc(N(C)CCCN3CCN(c4ccccc4OC)CC3)nc(N)c2cc1OC.Cl.Cl.O.O` [Example 31, 4-Amino-6,7-dimethoxy-2-{N-methyl-N-{3-[4-(2-methoxyphenyl)-1-piperazinyl]propyl}amino}-quinazoline dihydrochloride dihydrate], for which the LD50 at 168 h in the data set “in vivo” (setting [2]) was 70 mg/kg; in “in vivo” (oral, read-out: DL50 p.o.) it was over 2000 mg/kg. Besides, in data set [1], the IC50 is 0.012 µM.

With `COc1cc2nc(N3CCN(C(=O)C(C)Oc4c(OC)cccc4C(C)C)CC3)nc(N)c2cc1OC.Cl` (stereo not drawn) [Example 26, 4-Amino-6,7-dimethoxy-2-{4-[2-(2-methoxy-6-isopropylphenoxy)propionyl]-1-piperazinyl}-quinazoline hydrochloride], the LD50 at 168 h came out at 115 mg/kg in the data set “in vivo” (setting [2]) and 1960 mg/kg in the data set “in vivo” (oral, read-out: DL50 p.o.). The IC50 in data set [1] came to 0.123 µM.

Turning to `COc1cc2nc(N3CCc4c(ccc5ccccc45)C3)nc(N)c2cc1OC` [Example 30, 4-Amino-6,7-dimethoxy-2-(1,2,3,4-tetrahydrobenzo[f]isoquinolin-2-yl)-quinazoline . 0.25 ethanole], the IC50 in data set [1] stood at 0.005 µM.

Take `COc1cc2nc(N3CCN(C(=O)C(c4ccccc4)c4ccccc4)CC3)nc(N)c2cc1OC` [Example 3, 4-Amino-6,7-dimethoxy-2-[4-(2,2-diphenylacetyl)-1-piperazinyl]-quinazoline hydrochloride . 0.75 H2 O]: the LD50 at 168 h in “in vivo” (setting [2]) was 112 mg/kg; in “in vivo” (oral, read-out: DL50 p.o.) it was 868 mg/kg. For the same compound, in data set [1], the IC50 worked out at 0.005 µM.

In the case of `COc1cc2nc(N3CCN(C(=O)CNC(=O)OCc4ccccc4)CC3)nc(N)c2cc1OC.Cl` [Example 11, 4-Amino-6,7-dimethoxy-2-{4-[2-(benzyloxycarbonylamino)-acetyl]-1-piperazinyl}-quinazoline hydrochloride], the LD50 at 168 h is over 1000 mg/kg in “in vivo” (setting [2]) and over 3000 mg/kg in “in vivo” (oral, read-out: DL50 p.o.). Moreover, the IC50 in data set [1] is 0.061 µM.

Turning to `COc1cc2nc(N3CCN(C(=O)CCCNS(C)(=O)=O)CC3)nc(N)c2cc1OC` [Example 9, 4-Amino-6,7-dimethoxy-2-{4-[(4-methylsulfonylamino)butirry]-1-piperazinyl}-quinazoline hydrochloride], in the data set “in vivo” (setting [2]), the LD50 at 168 h is over 500 mg/kg. Moreover, in data set [1], the IC50 worked out at 0.086 µM.

With `CCOC(=O)CC(=O)N1CCN(c2nc(N)c3cc(OC)c(OC)cc3n2)CC1.Cl` [Example 18, 4-Amino-6,7-dimethoxy-2-[4-(2-ethoxycarbonylacetyl)-1-piperazinyl]-quinazoline hydrochloride], the LD50 at 168 h in “in vivo” (setting [2]) was over 1000 mg/kg; in the data set “in vivo” (oral, read-out: DL50 p.o.) it was over 3000 mg/kg. For the same compound, the IC50 in data set [1] was found to be 0.054 µM.

Take `COc1cc2nc(N3CCN(C(=O)CCN)CC3)nc(N)c2cc1OC` [Example 7, 4-Amino-6,7-dimethoxy-2-[4-(3-aminopropionyl)-1-piperazinyl]-guinazoline dihydrobromide . 1.75 H2 O]: the LD50 at 168 h is 187 mg/kg in “in vivo” (setting [2]) and over 3000 mg/kg in the data set “in vivo” (oral, read-out: DL50 p.o.). The IC50 in data set [1] turned out to be 0.048 µM.

As to `COc1cc2nc(N3CCN(C(=O)C(C)(C)Oc4ccccc4)CC3)nc(N)c2cc1OC` [Example 21, 4-Amino-6,7-dimethoxy-2-[4-(2-phenoxy-2-methylpropionyl)-1-piperazinyl]-quinazoline hydrochloride . 1.5 H2 O], the LD50 at 168 h in “in vivo” (setting [2]) was 206 mg/kg; in “in vivo” (oral, read-out: DL50 p.o.), over 1700 mg/kg. The IC50 in data set [1] was 0.099 µM.

In the case of `COc1cc2nc(N3CCN(C(=O)C(C)(C)Oc4ccccc4OC)CC3)nc(N)c2cc1OC.Cl` [Example 22, 4-Amino-6,7-dimethoxy-2-{4-[2-(2-methoxyphenoxy)-2-methylpropionyl]-1-piperazinyl}-quinazoline hydrochloride], the LD50 at 168 h was 435 mg/kg in “in vivo” (setting [2]) and over 3000 mg/kg in the data set “in vivo” (oral, read-out: DL50 p.o.). The IC50 in data set [1] worked out at 0.049 µM.

For `COc1cc2nc(N3CCN(C(=O)CCC(O)c4ccccc4)CC3)nc(N)c2cc1OC` (stereo not drawn) [Example 16, 4-Amino-6,7-dimethoxy-2-[4-(4-phenyl-4-hydroxybutirryl)-1-piperazinyl]-quinazoline maleate (1:1)], the LD50 at 168 h in “in vivo” (setting [2]) is 253 mg/kg; in “in vivo” (oral, read-out: DL50 p.o.) it was over 3000 mg/kg. For the same compound, the half-maximal inhibitory concentration (IC50) in data set [1] came to 0.017 µM.

As to `COc1cc2nc(N3CCN(C(=O)COc4cc(C)ccc4C(C)C)CC3)nc(N)c2cc1OC` [Example 25, 4-Amino-6,7-dimethoxy-2-{4-[(2-isopropyl-5-methylphenoxy)acetyl]-1-piperazinyl}-quinazoline hydrochloride . 0.25 H2 O], the LD50 at 168 h in “in vivo” (setting [2]) is 346 mg/kg; in the data set “in vivo” (oral, read-out: DL50 p.o.), over 3000 mg/kg. In addition, the IC50 in data set [1] was found to be 0.157 µM.

With `COc1cc2nc(N3CCN(C(c4ccccc4)c4ccccc4)CC3)nc(N)c2cc1OC` [Example 2, 4-Amino-6,7-dimethoxy-2-(4-diphenylmethyl-1-piperazinyl)-guinazoline bihydrochloride emihydrate], the IC50 in data set [1] was determined as 0.04 µM.

For `COc1cc2nc(N3CCN(C(=O)CC(=O)Nc4ccccc4)CC3)nc(N)c2cc1OC` [Example 20, 4-Amino-6,7-dimethoxy-2-[4-(phenylaminocarbonylacetyl)-1-piperazinyl]-quinazoline hydrochloride hemihydrate], the IC50 in data set [1] turned out to be 0.067 µM.

In the case of `COc1cc2nc(N3CCN(C(=O)COc4c(OC)cccc4OC)CC3)nc(N)c2cc1OC` [Example 27, 4-Amino-6,7-dimethoxy-2-[4-(2,6-dimethoxyphenoxy)acetyl-1-piperazinyl]-quinazoline hydrochloride . 0.25 H2 O], in data set [1], the IC50 came out at 0.006 µM.

As for `COc1cc2nc(N3CCN(C(=O)COc4ccccc4OC)CC3)nc(N)c2cc1OC.Cl` [Example 23, 4-Amino-6,7-dimethoxy-2-[4-(2-methoxyphenoxyacetyl)-1-piperazinyl]-quinazoline hydrochloride], the LD50 at 168 h in “in vivo” (setting [2]) is 337 mg/kg; in “in vivo” (oral, read-out: DL50 p.o.) it was over 2000 mg/kg.

Take `COc1cc2nc(N3CCN(C(=O)CC(N)=O)CC3)nc(N)c2cc1OC` [Example 17, 4-Amino-6,7-dimethoxy-2-[4-(3-oxo-3-aminopropionyl)-1-piperazinyl]-quinazoline hydrochloride hydrate]: the IC50 in data set [1] was determined as 0.105 µM.
